Assay results from PMC10119423, “From PERK to RIPK1: Design, synthesis and evaluation of novel potent and selective necroptosis inhibitors” (Frontiers in Chemistry, 2023).

Key:
[1] = target: T1, RIPK1 (Mus musculus, UniProt Q60855); experiment: RIPK1 autophosphorylation (pS166) by Western blot in MEFs stimulated with hTNF + TAK1i + zVAD.fmk; assay type: cell-based; settings: immortalised MEFs, 30 min pretreatment with zVAD.fmk 50 μM, TAK1i 1 μM and compound, hTNF 20 ng/ml for 2.5 h, read-out: RIPK1 inhibition (IC50 estimated from a Western blot)
T1 construct: endogenous in cells; host or cells: immortalized mouse embryonic fibroblasts (MEFs, C57Bl6/J)
T1 sequence (Q60855 1-656): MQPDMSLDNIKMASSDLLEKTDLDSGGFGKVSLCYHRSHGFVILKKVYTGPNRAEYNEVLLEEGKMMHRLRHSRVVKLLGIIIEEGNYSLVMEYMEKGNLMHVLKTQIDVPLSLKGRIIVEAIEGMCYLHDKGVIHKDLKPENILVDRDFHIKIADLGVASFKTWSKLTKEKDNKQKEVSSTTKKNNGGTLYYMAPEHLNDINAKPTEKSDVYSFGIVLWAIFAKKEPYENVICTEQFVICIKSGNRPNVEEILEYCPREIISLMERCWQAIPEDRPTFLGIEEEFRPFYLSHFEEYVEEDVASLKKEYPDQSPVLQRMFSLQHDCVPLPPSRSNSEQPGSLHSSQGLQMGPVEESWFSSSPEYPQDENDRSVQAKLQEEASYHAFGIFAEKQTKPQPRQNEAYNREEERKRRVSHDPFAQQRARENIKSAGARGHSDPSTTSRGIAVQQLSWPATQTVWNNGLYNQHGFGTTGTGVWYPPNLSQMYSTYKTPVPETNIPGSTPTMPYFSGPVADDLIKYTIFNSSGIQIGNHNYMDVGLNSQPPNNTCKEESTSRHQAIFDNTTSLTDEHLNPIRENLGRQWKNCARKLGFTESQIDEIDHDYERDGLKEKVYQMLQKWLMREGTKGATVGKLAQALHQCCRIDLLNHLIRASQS
Method: MEFs were seeded in 6-well plates at a density of 300.000 cells/well in 2 mL. The next day, the cells were suspended in 1 mL of medium and pre-treated for 30 min with the indicated compounds at 1/5 dilutions series for PERK ranging from 5 to 0.04 µM and 1 μg/mL of Tm followed by 4 h treatment with 20 ng/mL of hTNF. For RIPK1, the cells were pre-treated at 1/10 dilutions series ranging from 10 to 0.01 nM, 50 µM zVAD.fmk and 1 µM TAKi before stimulation with 20 ng/mL of hTNF for 2.5 h. Then, the cells were washed two times with 1 mL of ice-cold PBS before lysis in 0.2 mL of Laemmli buffer 1x (10% (w/v) SDS, 50% glycerol, 0.5% bromophenol blue, 250 mM Tris–HCl pH 6.8) and 250 mM of dithiothreitol (DTT). The cell lysate was then collected and boiled at 95 °C for 10min and stored at −20°C. Proteins expression was later monitored by immunoblotting.
Activation of PERK was induced by stimulation of the cells with Tunicamycin, as previsouly reported ([Bull and Thiede, 2012]). More precisely, the immortalised MEFs were pre-incubated for 30 min with the analogues 18–34 at different concentrations (0.04, 0.2, 1, and 5 µM) prior to 4 h stimulation with Tunicamycin (1 μg/mL). […] Their activities were evaluated by comparing the intensity of the signal to unstimulated MEFs (considered as zero phosphorylation) and Tunicamycin stimulated cells (considered as 100% PERK phosphorylation). The 12 compounds (18–20, 22–29 and 34) that had lost their inhibitory capacity on PERK were then tested for their ability to inhibit RIPK1 as shown in Figures 6A–H. Activation and autophosphorylation of RIPK1 was induced by stimulating the cells with TNF in the presence of TAK1 inhibitor and of the pan-caspases inhibitor zVAD.fmk, a well established necroptotic trigger ([Vanlangenakker et al., 2011]). The MEFs were pre-incubated for 30 min with the different compounds (0.01 nM–1000 nM) and then stimulated with human TNF (20 ng/mL) for 2.5 h. Similar to the PERK assessment, IC50 values for RIPK1 inhibition were estimated as a range of concentrations, and are reported in Table 1. These experiments provide an estimation of the specificity of our analogues against PERK and RIPK1 in comparison to the benchmark GSK’157 already reported as a potent PERK and RIPK1 inhibitor.

[2] = system: MEFs; experiment: RIPK1 kinase-dependent apoptosis (hTNF + TAK1i) in MEFs, Sytox Green; assay type: cell-based; settings: Mus musculus, TAK1i + hTNF (100 pg/mL)
Description: In MEFs, TNF together with the pan caspases inhibitor zVAD.fmk induces RIPK1-dependent necroptosis while TNF together with TAK1 inhibitor induces RIPK1 kinase-dependent apoptosis. We also included the conditions selected for the Western blot experiments, where necroptosis was induced by the combination of hTNF, zVAD.fmk and TAK1 inhibitor.

Cn1cc(-c2ccc3c(c2F)CCN3C(=O)Cc2ccc(C(F)(F)F)cn2)c2c(N)ncnc21 [Compound 22]
IC50 [1]: 1 to 10 nM | IC50 [2]: 3.3 nM
